Laboratory results as given in patent US20120220577A1, “GLYCINE B ANTAGONISTS” (Merz Pharma GmbH & Co KgaA, priority 2009, published 2012).

Tests used:
[1] = biological target: NMDA receptor glycine B site (Rattus norvegicus, UniProt P35439); experiment: Calcium FLIPR studies, rat cortical neurons (NMDA/D-Serine induced intracellular calcium); assay type: cell-based; parameters: Primary neurons are prepared from cortices of embryonal rats at day 17 of pregnancy; endogenous in cells; host or cells: primary rat cortical neurons (E17, 11-13 DIV); conditions: rat cortical neurons; stimulation with 30 μM NMDA and 1 μM D-Serine; antagonist pre-incubated 10 min; read-out: NMDA-FLIPR-rCTX-NAM - IC50
Outline: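 Embryonic (E17) Sprague-Dawley rat cortical neurons, 11-13 days in vitro, loaded with Calcium-4 dye (pH 7.3) and pre-incubated with antagonist (5 concentrations) for 10 min at room temperature, then stimulated with 30 μM NMDA plus 1 μM D-Serine. FLIPR AUC as percent of agonist control; IC50 by four-parameter logistic fit.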

[2] = biological target: T1, glycine binding pocket of the NMDA receptor (Rattus norvegicus, UniProt P35439); experiment: [3H]MDL-105,519 displacement studies (rat cortical membranes); conditions: displacement of 2 nM [3H]-MDL-105,519, rat cortical membranes; read-out: NMDA-MDL 105519-r-CTX - IC50
T1 construct: For isolation of the cell membranes, the cortices are homogenized; from tissue; host or cells: rat cerebral cortex membranes (male Sprague-Dawley)

Row | IC50 [1] [µM] | IC50 [2] [µM] | SMILES
1 | 6.2 | 1.18 | O=C(O)COc1cc(C(=O)O)cc2cc(Cl)cc(Cl)c12 [Example 1, 4-Carboxymethoxy-5,7-dichloronaphthalene-2-carboxylic acid]
2 | 3.27 | 0.765 | O=C(COc1cc(C(=O)O)cc2cc(Cl)cc(Cl)c12)Nc1ccccc1C(=O)O [Example 3, 4-[(2-Carboxy-phenylcarbamoyl)-methoxy]-5,7-dichloro-naphthalene-2-carboxylic acid]
3 | 7.08 | 0.562 | O=C(COc1cc(C(=O)O)cc2cc(Cl)cc(Cl)c12)Nc1ccccc1CO [Example 5, 5,7-Dichloro-4-[(2-hydroxymethylphenylcarbamoyl)-methoxy]-naphthalene-2-carboxylic acid]
4 | 4.01 | 0.958 | O=C(O)Cc1ccc(NC(=O)COc2cc(C(=O)O)cc3cc(Cl)cc(Cl)c23)cc1 [Example 7, 4-[(4-Carboxymethylphenylcarbamoyl)-methoxy]-5,7-dichloronaphthalene-2-carboxylic acid]
5 | 1.96 | 0.457 | O=C(O)Cc1cccc(NC(=O)COc2cc(C(=O)O)cc3cc(Cl)cc(Cl)c23)c1 [Example 13, 4-[(3-Carboxymethylphenylcarbamoyl)-methoxy]-5,7-dichloronaphthalene-2-carboxylic acid]
6 | 7.33 | 4.34 | CN(C(=O)COc1cc(C(=O)O)cc2cc(Cl)cc(Cl)c12)c1ccc(C(=O)O)cc1 [Example 14, 4-{[(4-Carboxy-phenyl)-methylcarbamoyl]-methoxy}-5,7-dichloronaphthalene-2-carboxylic acid]
7 | 2.68 | 0.503 | O=C(O)Cc1ccccc1NC(=O)COc1cc(C(=O)O)cc2cc(Cl)cc(Cl)c12 [Example 15, 4-[(2-Carboxymethylphenylcarbamoyl)-methoxy]-5,7-dichloronaphthalene-2-carboxylic acid]
8 | 9.56 | 0.988 | O=C(COc1cc(C(=O)O)cc2cc(Cl)cc(Cl)c12)NCc1ccccc1 [Example 18, 4-(Benzylcarbamoylmethoxy)-5,7-dichloro-naphthalene-2-carboxylic acid]
9 | 1.22 | 0.405 | CN(C(=O)COc1cc(C(=O)O)cc2cc(Cl)cc(Cl)c12)c1ccccc1C(=O)O [Example 20, 4-{[(2-Carboxyphenyl)-methylcarbamoyl]-methoxy}-5,7-dichloronaphthalene-2-carboxylic acid]
10 | 0.211 | 0.0119 | NCc1ccc(NC(=O)COc2cc(C(=O)O)cc3cc(Cl)cc(Cl)c23)c(OCC(=O)O)c1 [Example 34, 4-[(4-Aminomethyl-2-carboxymethoxyphenylcarbamoyl)-methoxy]-5,7-dichloronaphthalene-2-carboxylic acid]
11 | 0.105 | 0.055 | O=C(O)COc1ccccc1NC(=O)COc1cc(C(=O)O)cc2cc(Cl)cc(Cl)c12 [Example 42, 4-[(2-Carboxymethoxyphenylcarbamoyl)-methoxy]-5,7-dichloronaphthalene-2-carboxylic acid]
12 | 7.41 | 1.19 | O=C(O)c1cc(OCC(=O)N2CCCc3ccccc32)c2c(Cl)cc(Cl)cc2c1 [Example 50, 5,7-Dichloro-4-[2-(3,4-dihydro-2H-quinolin-1-yl)-2-oxo-ethoxy]-naphthalene-2-carboxylic acid]
13 | 1.7 | 0.228 | O=C(COc1cc(C(=O)O)cc2cc(Cl)cc(Cl)c12)Nc1ccccc1OCC(=O)N1CCOCC1 [Example 54, 5,7-Dichloro-4-{[2-(2-morpholin-4-yl-2-oxo-ethoxy)-phenylcarbamoyl]-methoxy}-naphthalene-2-carboxylic acid]
14 | 0.88 | 0.083 | O=C(O)COc1ccccc1CNC(=O)COc1cc(C(=O)O)cc2cc(Cl)cc(Cl)c12 [Example 59, 4-[(2-Carboxymethoxy-benzylcarbamoyl)-methoxy]-5,7-dichloro-naphthalene-2-carboxylic acid]
15 | 1.56 | 0.203 | O=C(COc1cc(C(=O)O)cc2cc(Cl)cc(Cl)c12)Nc1ccccc1OCc1nnn[nH]1 [Example 60, 5,7-Dichloro-4-{[2-(1H-tetrazol-5-ylmethoxy)-phenylcarbamoyl]-methoxy}-naphthalene-2-carboxylic acid]
16 | 5.46 | 1.01 | COCC(Oc1cc(C(=O)O)cc2cc(Cl)cc(Cl)c12)C(=O)Nc1ccccc1OC (stereo not shown) [Example 74, 5,7-Dichloro-4-[2-methoxy-1-(2-methoxy-phenylcarbamoyl)-ethoxy]-naphthalene-2-carboxylic acid]
17 | 4.13 | 0.988 | O=C(O)c1cc(OCC(=O)N2CCOc3c(CO)cccc32)c2c(Cl)cc(Cl)cc2c1 [Example 78, 5,7-Dichloro-4-[2-(8-hydroxymethyl-2,3-dihydro-benzo[1,4]oxazin-4-yl)-2-oxo-ethoxy]-naphthalene-2-carboxylic acid]
